Reference: PubChem BioAssay AID1259407 (Chemical Carcinogenesis Research Information System (CCRIS), 2018)
Activity calls are given as the source filed them. How the calls were made is not given here.

Tested on: CCRIS mutagenicity, Ames/micronucleus/aberration tests
Assay: CCRIS mutagenicity studies
[1] = Test System: AMES SALMONELLA TYPHIMURIUM, Strain/Indicator: TA100, Metabolic Activation: NONE, Method: STANDARD PLATE
[2] = Test System: AMES SALMONELLA TYPHIMURIUM, Strain/Indicator: TA104, Metabolic Activation: NONE, Method: PREINCUBATION

O=Cc1ccc(CO)o1 was tested, and the mutagenic call (End Point: In vivo micronucleus, Test System: Peripheral blood normochromatic erythrocytes, Species: Mouse, Strain/Sex: B6C3F1/Female, Route: Oral) was “inactive; negative”, the mutagenic call (End Point: In vivo micronucleus, Test System: Peripheral blood normochromatic erythrocytes, Species: Mouse, Strain/Sex: B6C3F1/Male, Route: Oral) was “inactive; negative” and the mutagenic call (Test System: AMES SALMONELLA TYPHIMURIUM, Strain/Indicator: TA98, Metabolic Activation: NONE, Method: STANDARD PLATE) was “inactive; negative”. For the same molecule, the mutagenic call (Test System: AMES SALMONELLA TYPHIMURIUM, Strain/Indicator: TA98, Metabolic Activation: S-9, Method: STANDARD PLATE) was “active; positive”, the mutagenic call [1] was “inactive; negative” and the mutagenic call (Test System: AMES SALMONELLA TYPHIMURIUM, Strain/Indicator: TA100, Metabolic Activation: S-9, Method: STANDARD PLATE) was “active; positive”. The mutagenic call [2] was “inactive; negative”, the mutagenic call (Test System: Ames Salmonella typhimurium, Strain/Indicator: TA97, Metabolic Activation: Hamster, Liver, S-9, Aroclor 1254 (10 and 30%), Method: Preincubation) was “inactive; negative” and the mutagenic call (Test System: Ames Salmonella typhimurium, Strain/Indicator: TA97, Metabolic Activation: None, Method: Preincubation) was “inactive; negative”. For the same molecule, the mutagenic call (Test System: Ames Salmonella typhimurium, Strain/Indicator: TA97, Metabolic Activation: Rat, Liver, S-9, Aroclor 1254 (10 and 30%), Method: Preincubation) was “inactive; negative”, the mutagenic call (Test System: Ames Salmonella typhimurium, Strain/Indicator: TA98, Metabolic Activation: Hamster, Liver, S-9, Aroclor 1254 (10 and 30%), Method: Preincubation) was “inactive; negative” and the mutagenic call (Test System: Ames Salmonella typhimurium, Strain/Indicator: TA98, Metabolic Activation: None, Method: Preincubation) was “inactive; negative”. For the same molecule, the mutagenic call (Test System: Ames Salmonella typhimurium, Strain/Indicator: TA98, Metabolic Activation: Rat, Liver, S-9, Aroclor 1254 (10 and 30%), Method: Preincubation) was “inactive; negative”, the mutagenic call (Test System: Ames Salmonella typhimurium, Strain/Indicator: TA98, Metabolic Activation: Rat, Liver, S-9, Aroclor 1254,10%, Method: Preincubation) was “inactive; negative” and the mutagenic call (Test System: Ames Salmonella typhimurium, Strain/Indicator: TA100, Metabolic Activation: Hamster, Liver, S-9, Aroclor 1254 (10 and 30%), Method: Preincubation) was “inactive; negative”. The mutagenic call (Test System: Ames Salmonella typhimurium, Strain/Indicator: TA100, Metabolic Activation: Rat, Liver, S-9, Aroclor 1254 (10 and 30%), Method: Preincubation) was “inactive; negative”, the mutagenic call (Test System: Ames Salmonella typhimurium, Strain/Indicator: TA100, Metabolic Activation: Rat, Liver, S-9, Aroclor 1254,10%, Method: Preincubation) was “inactive; negative” and the mutagenic call (Test System: Ames Salmonella typhimurium, Strain/Indicator: TA102, Metabolic Activation: Hamster, Liver, S-9, Aroclor 1254 (10 and 30%), Method: Preincubation) was “inactive; negative”. For the same molecule, the mutagenic call (Test System: Ames Salmonella typhimurium, Strain/Indicator: TA102, Metabolic Activation: None, Method: Preincubation) was “inactive; negative”, the mutagenic call (Test System: Ames Salmonella typhimurium, Strain/Indicator: TA102, Metabolic Activation: Rat, Liver, S-9, Aroclor 1254 (10 and 30%), Method: Preincubation) was “inactive; negative” and the mutagenic call (Test System: Ames Salmonella typhimurium, Strain/Indicator: TA1535, Metabolic Activation: None, Method: Preincubation) was “inactive; negative”. For the same molecule, the mutagenic call (Test System: CHINESE HAMSTER V-79, Strain/Indicator: V-79 (HPRT)/6-THIOGUANINE, Metabolic Activation: NONE, Method: STANDARD PLATE) was “active; positive”, the mutagenic call (Test System: E. coli, Strain/Indicator: WP2 uvrA/pKM101, Metabolic Activation: None, Method: Preincubation) was “inactive; negative” and the mutagenic call (Test System: E. coli, Strain/Indicator: WP2 uvrA/pKM101, Metabolic Activation: Rat, Liver, S-9, Aroclor 1254 (10%), Method: Preincubation) was “inactive; negative”.

For CC(C)(C)c1cc(O)ccc1O, the mutagenic call (Test System: AMES SALMONELLA TYPHIMURIUM, Strain/Indicator: TA97, Metabolic Activation: HAMSTER, LIVER, S-9, AROCLOR 1254 (10%), Method: PREINCUBATION) was “inactive; negative”, the mutagenic call (Test System: AMES SALMONELLA TYPHIMURIUM, Strain/Indicator: TA97, Metabolic Activation: HAMSTER, LIVER, S-9, AROCLOR 1254 (30%), Method: PREINCUBATION) was “inactive; negative” and the mutagenic call (Test System: AMES SALMONELLA TYPHIMURIUM, Strain/Indicator: TA97, Metabolic Activation: NONE, Method: PREINCUBATION) was “inactive; negative”. For the same molecule, the mutagenic call (Test System: AMES SALMONELLA TYPHIMURIUM, Strain/Indicator: TA97, Metabolic Activation: NONE, Method: STANDARD PLATE) was “inactive; negative”, the mutagenic call (Test System: AMES SALMONELLA TYPHIMURIUM, Strain/Indicator: TA97, Metabolic Activation: RAT, LIVER, S-9, AROCLOR 1254 (10%), Method: PREINCUBATION) was “inactive; negative” and the mutagenic call (Test System: AMES SALMONELLA TYPHIMURIUM, Strain/Indicator: TA97, Metabolic Activation: RAT, LIVER, S-9, AROCLOR 1254 (30%), Method: PREINCUBATION) was “inactive; negative”. The mutagenic call (Test System: AMES SALMONELLA TYPHIMURIUM, Strain/Indicator: TA97, Metabolic Activation: RAT, LIVER, S-9, AROCLOR, Method: STANDARD PLATE) was “inactive; negative”, the mutagenic call (Test System: AMES SALMONELLA TYPHIMURIUM, Strain/Indicator: TA97, Metabolic Activation: RAT, LIVER, S-9, PCB, Method: PREINCUBATION) was “inactive; negative” and the mutagenic call (Test System: AMES SALMONELLA TYPHIMURIUM, Strain/Indicator: TA98, Metabolic Activation: HAMSTER, LIVER, S-9, AROCLOR 1254 (10%), Method: PREINCUBATION) was “inactive; negative”. For the same molecule, the mutagenic call (Test System: AMES SALMONELLA TYPHIMURIUM, Strain/Indicator: TA98, Metabolic Activation: HAMSTER, LIVER, S-9, AROCLOR 1254 (30%), Method: PREINCUBATION) was “inactive; negative”, the mutagenic call (Test System: AMES SALMONELLA TYPHIMURIUM, Strain/Indicator: TA98, Metabolic Activation: NONE, Method: PREINCUBATION) was “inactive; negative” and the mutagenic call (Test System: AMES SALMONELLA TYPHIMURIUM, Strain/Indicator: TA98, Metabolic Activation: RAT, LIVER, S-9, AROCLOR 1254 (10%), Method: PREINCUBATION) was “inactive; negative”. For the same molecule, the mutagenic call (Test System: AMES SALMONELLA TYPHIMURIUM, Strain/Indicator: TA98, Metabolic Activation: RAT, LIVER, S-9, AROCLOR 1254 (30%), Method: PREINCUBATION) was “inactive; negative”, the mutagenic call (Test System: AMES SALMONELLA TYPHIMURIUM, Strain/Indicator: TA98, Metabolic Activation: RAT, LIVER, S-9, PCB, Method: PREINCUBATION) was “inactive; negative” and the mutagenic call (Test System: AMES SALMONELLA TYPHIMURIUM, Strain/Indicator: TA100, Metabolic Activation: HAMSTER, LIVER, S-9, AROCLOR 1254 (10%), Method: PREINCUBATION) was “inactive; negative”. For the same molecule, the mutagenic call (Test System: AMES SALMONELLA TYPHIMURIUM, Strain/Indicator: TA100, Metabolic Activation: HAMSTER, LIVER, S-9, AROCLOR 1254 (30%), Method: PREINCUBATION) was “inactive; negative”, the mutagenic call (Test System: AMES SALMONELLA TYPHIMURIUM, Strain/Indicator: TA100, Metabolic Activation: NONE, Method: PREINCUBATION) was “inactive; negative” and the mutagenic call [1] was “inactive; negative”. The mutagenic call (Test System: AMES SALMONELLA TYPHIMURIUM, Strain/Indicator: TA100, Metabolic Activation: RAT, LIVER, S-9, AROCLOR 1254 (10%), Method: PREINCUBATION) was “inactive; negative”, the mutagenic call (Test System: AMES SALMONELLA TYPHIMURIUM, Strain/Indicator: TA100, Metabolic Activation: RAT, LIVER, S-9, AROCLOR 1254 (30%), Method: PREINCUBATION) was “inactive; negative” and the mutagenic call (Test System: AMES SALMONELLA TYPHIMURIUM, Strain/Indicator: TA100, Metabolic Activation: RAT, LIVER, S-9, AROCLOR, Method: STANDARD PLATE) was “inactive; negative”. The mutagenic call (Test System: AMES SALMONELLA TYPHIMURIUM, Strain/Indicator: TA100, Metabolic Activation: RAT, LIVER, S-9, PCB, Method: PREINCUBATION) was “inactive; negative”, the mutagenic call (Test System: AMES SALMONELLA TYPHIMURIUM, Strain/Indicator: TA102, Metabolic Activation: HAMSTER, LIVER, S-9, AROCLOR 1254 (10%), Method: PREINCUBATION) was “inactive; negative” and the mutagenic call (Test System: AMES SALMONELLA TYPHIMURIUM, Strain/Indicator: TA102, Metabolic Activation: HAMSTER, LIVER, S-9, AROCLOR 1254 (30%), Method: PREINCUBATION) was “inactive; negative”. The mutagenic call (Test System: AMES SALMONELLA TYPHIMURIUM, Strain/Indicator: TA102, Metabolic Activation: NONE, Method: PREINCUBATION) was “inactive; negative”, the mutagenic call (Test System: AMES SALMONELLA TYPHIMURIUM, Strain/Indicator: TA102, Metabolic Activation: NONE, Method: STANDARD PLATE) was “inactive; negative” and the mutagenic call (Test System: AMES SALMONELLA TYPHIMURIUM, Strain/Indicator: TA102, Metabolic Activation: RAT, LIVER, S-9, AROCLOR 1254 (10%), Method: PREINCUBATION) was “inactive; negative”. The mutagenic call (Test System: AMES SALMONELLA TYPHIMURIUM, Strain/Indicator: TA102, Metabolic Activation: RAT, LIVER, S-9, AROCLOR 1254 (30%), Method: PREINCUBATION) was “inactive; negative”, the mutagenic call (Test System: AMES SALMONELLA TYPHIMURIUM, Strain/Indicator: TA102, Metabolic Activation: RAT, LIVER, S-9, AROCLOR, Method: STANDARD PLATE) was “inactive; negative” and the mutagenic call (Test System: AMES SALMONELLA TYPHIMURIUM, Strain/Indicator: TA102, Metabolic Activation: RAT, LIVER, S-9, PCB, Method: PREINCUBATION) was “inactive; negative”. For the same molecule, the mutagenic call [2] was “inactive; negative”, the mutagenic call (Test System: AMES SALMONELLA TYPHIMURIUM, Strain/Indicator: TA104, Metabolic Activation: NONE, Method: STANDARD PLATE) was “inactive; negative” and the mutagenic call (Test System: AMES SALMONELLA TYPHIMURIUM, Strain/Indicator: TA104, Metabolic Activation: RAT, LIVER, S-9, AROCLOR, Method: PREINCUBATION) was “inactive; negative”. The mutagenic call (Test System: AMES SALMONELLA TYPHIMURIUM, Strain/Indicator: TA104, Metabolic Activation: RAT, LIVER, S-9, AROCLOR, Method: STANDARD PLATE) was “inactive; negative”.
